Assay [1] addresses T1, IRAK4 (Homo sapiens (Human), UniProt Q9NWZ3). Put plainly: IRAK4 MSD degradation in OCI-LY10. Particulars: OCI-LY10, 4 hrs; read-out: IRAK4 MSD degradation in OCI-LY10 at 4 hrs: DC50. In kind it is cell-based. Summed up:
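OCI-LY10 cells treated with 8-point 1:3 dilutions (top 1 to 10 μM final) for 4 to 24 h at 37° C. Lysate IRAK4 measured by MSD sandwich immunoassay (2H9 capture, Y279 detection, SULFO-TAG anti-rabbit). DC50 from three-parameter logistic fit.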

Assay [2] deals with T1, IRAK4. Put plainly: hPBMC IRAK4 degradation flow assay. The class given is cell-based. Particulars: hPBMC monocyte, 20 hrs; read-out: IRAK4 degradation in hPBMC monocyte: DC50. The method, then:
hPBMC IRAK4 degradation flow assay. Frozen PBMCs were thawed into RPMI with 10% FBS and allowed to recover. On the same day as thawed, PBMCs were plated in 96 well plate, 90 uL per well. Compound plates were prepared and a 10 point, 5-fold dilution was performed with a final DMSO concentration of 0.1%. Compound 10 μL per well was added, sealed and incubated at 37° C., 5% C02 for 20 hours (for 4 hour treatment, compounds were prepared and added the following day). […] Cells were spun down and washed two times with PBS/0.5% BSA, aspirated to pellet and placed into −80° C. freezer until further processing for flow. On the flow run day, PBMC plates were thawed and samples were transferred to PCR plates. The pre-perm staining cocktail (CD3 Ax488/CD8 BUV805/CD14 BUV395/CD16/56 BV711/CD19 BV785) was added to samples and incubated for 30 minutes at room temperature. Samples were washed two times and permeabilized with methanol for 10 minutes at 4° C. […] Samples were washed two times with PBS/BSA and run on a BD LSRFortessa. Mononuclear cells are gated by SSCH/FSCH and single cells. Monocytes are then gated through CD14 positive gate and lymphocytes are gated through CD14 negative gate. To determine absolute DC50s and max degradation values, MFI values were normalized to DMSO max and 20 hour 10 μM min control. Twenty hour dose curves were calculated using a 4 parameter logistic regression curve fit, no constraints (Top doses were removed if hook effects were observed and the bottom was constrained to 0).

DC50 data for 13 molecules are collected here from US11352350B2, “IRAK degraders and uses thereof” (Kymera Therapeutics, Inc., priority 2018, dated 2022).

T1 sequence (Q9NWZ3 whole entry): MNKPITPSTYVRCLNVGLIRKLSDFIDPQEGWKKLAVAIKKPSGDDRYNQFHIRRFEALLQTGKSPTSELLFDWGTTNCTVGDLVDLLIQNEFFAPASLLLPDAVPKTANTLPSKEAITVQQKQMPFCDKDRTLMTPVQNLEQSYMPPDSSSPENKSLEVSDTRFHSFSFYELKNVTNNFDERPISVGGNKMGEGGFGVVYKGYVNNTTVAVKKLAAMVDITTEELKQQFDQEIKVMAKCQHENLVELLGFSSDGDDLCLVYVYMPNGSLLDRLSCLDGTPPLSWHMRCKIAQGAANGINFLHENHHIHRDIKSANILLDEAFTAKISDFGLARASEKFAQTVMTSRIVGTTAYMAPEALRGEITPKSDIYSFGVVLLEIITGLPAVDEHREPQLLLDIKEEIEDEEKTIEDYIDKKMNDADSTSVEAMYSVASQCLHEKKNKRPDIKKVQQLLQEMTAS

As to `Cn1c(=O)n(C2CCC(=O)NC2=O)c2cccc(CCCOCCCC(CNC[C@H]3CC[C@H](n4cc(NC(=O)c5cnn6ccc(N7C[C@H]8C[C@@H]7CO8)nc56)c(C(F)F)n4)CC3)C(=O)O)c21` (some centres unmarked) [I-470], the DC50 on IRAK4 [1] and at IRAK4 [2] was 100 to 1000 nM each time.
For `C[C@@H]1CN(c2ccn3ncc(C(=O)Nc4cn([C@H]5CC[C@H](CN6CCC(OCC#Cc7cccc8c7n(C)c(=O)n8C7CCC(=O)NC7=O)CC6)CC5)nc4C(F)F)c3n2)C[C@@H](C)O1` (some centres unmarked) [I-527], the DC50 (usually the concentration giving 50% degradation) was 10 to 100 nM at IRAK4 [1] and less than 10 nM at IRAK4 [2].
Regarding `C[C@@H]1CN(c2ccn3ncc(C(=O)Nc4cn([C@H]5CC[C@H](CN6CCC(OCC#Cc7cccc8c7n(C)c(=O)n8C7CCC(=O)NC7=O)CC6)CC5)nc4C(F)F)c3n2)C[C@H](C)O1` (some centres unmarked) [I-531], the figures for the DC50 at IRAK4 [1] and at IRAK4 [2] were 10 to 100 nM and less than 10 nM, respectively.
Turning to `Cn1c(=O)n(C2CCC(=O)NC2=O)c2cccc(C#CCOC3CCN(C[C@H]4CC[C@H](n5cc(NC(=O)c6cnn7ccc(N8CCOC(C)(C)C8)nc67)c(C(F)F)n5)CC4)CC3)c21` (some centres unmarked) [I-533], the DC50 at IRAK4 [1] is 10 to 100 nM; on IRAK4 [2], less than 10 nM.
Take `Cn1c(=O)n(C2CCC(=O)NC2=O)c2cccc(C#CCC3CCN(C[C@H]4CC[C@H](C5N=C(NC(=O)c6cnn7ccc(N8C[C@H]9CC[C@@H](C8)O9)nc67)C(C(F)F)=N5)CC4)CC3)c21` (some centres unmarked) [I-534]: the DC50 on IRAK4 [1] is 10 to 100 nM; on IRAK4 [2], less than 10 nM.
Regarding `Cn1c(=O)n(C2CCC(=O)NC2=O)c2cccc(CCCC3CCN(C[C@H]4CC[C@H](C5N=C(NC(=O)c6cnn7ccc(N8C[C@H]9CC[C@@H](C8)O9)nc67)C(C(F)F)=N5)CC4)CC3)c21` (some centres unmarked) [I-535], the DC50 on IRAK4 [1] and at IRAK4 [2] was less than 10 nM each time.
Take `C[C@H]1CN(c2ccn3ncc(C(=O)Nc4cn([C@H]5CC[C@H](CN6CCC(OCC#Cc7cccc8c7n(C)c(=O)n8C7CCC(=O)NC7=O)CC6)CC5)nc4C(F)F)c3n2)C[C@H](C)O1` (some centres unmarked) [I-536]: the values for the DC50 on IRAK4 [1] and at IRAK4 [2] were 10 to 100 nM and less than 10 nM, respectively.
Regarding `Cn1c(=O)n(C2CCC(=O)NC2=O)c2cccc(CCCC3CCN(C[C@H]4CC[C@H](C5N=C(NC(=O)c6cnn7ccc(N8CCOC9(CCC9)C8)nc67)C(C(F)F)=N5)CC4)CC3)c21` (some centres unmarked) [I-538], the DC50 was 10 to 100 nM at IRAK4 [1] and less than 10 nM on IRAK4 [2].
Consider `Cn1c(=O)n(C2CCC(=O)NC2=O)c2cccc(CCCOC3CCN(C[C@H]4CC[C@H](n5cc(NC(=O)c6cnn7ccc(N8CCOC(C)(C)C8)nc67)c(C(F)F)n5)CC4)CC3)c21` (some centres unmarked) [I-539], for which the values for the DC50 at IRAK4 [1] and on IRAK4 [2] were 10 to 100 nM and less than 10 nM, respectively.
For `Cn1c(=O)n(C2CCC(=O)NC2=O)c2cccc(C#CCOC3CCN(C[C@H]4CC[C@H](n5cc(NC(=O)c6cnn7ccc(N8CCOC9(CCC9)C8)nc67)c(C(F)F)n5)CC4)CC3)c21` (some centres unmarked) [I-541], the half-maximal degradation concentration (DC50) at IRAK4 [1] is 10 to 100 nM; at IRAK4 [2], less than 10 nM.
With `Cn1c(=O)n(C2CCC(=O)NC2=O)c2cccc(CCCOC3CCN(C[C@H]4CC[C@H](n5cc(NC(=O)c6cnn7ccc(N8CCOC9(CCC9)C8)nc67)c(C(F)F)n5)CC4)CC3)c21` (some centres unmarked) [I-542], the DC50 was 10 to 100 nM at IRAK4 [1] and less than 10 nM at IRAK4 [2].
As for `C[C@@H](CCc1cccc2c1n(C)c(=O)n2C1CCC(=O)NC1=O)OC1CCN(C[C@H]2CC[C@H](n3cc(NC(=O)c4cnn5ccc(N6C[C@H]7C[C@@H]6CO7)cc45)c(C(F)F)n3)CC2)CC1` (some centres unmarked) [I-545], the DC50 at IRAK4 [1] and at IRAK4 [2] was less than 10 nM throughout.
As for `CN(CCCC#Cc1ccc2c(c1)n(C)c(=O)n2C1CCC(=O)NC1=O)C[C@H]1CC[C@H](n2cc(NC(=O)c3cnn4ccc(N5C[C@H]6C[C@@H]5CO6)nc34)c(C(F)F)n2)CC1` (stereo partly drawn) [I-546, 5-((1R,4R)-2-oxa-5-azabicyclo[2.2.1]heptan-5-yl)-N-(3-(difluoromethyl)-1-((1r,4R)-4-(((5-(1-(2,6-dioxopiperidin-3-yl)-3-methyl-2-oxo-2,3-dihydro-1H-benzo [d]imidazol-5-yl)pent-4-yn-1-yl)(methyl)amino)methyl)cyclohexyl)-1H-pyrazol-4-yl)pyrazolo[1,5-a] pyrimidine-3-carboxamide], the DC50 on IRAK4 [1] fell in the range of 100 to 1000 nM; at IRAK4 [2], 10 to 100 nM.
